Where two headings read alike, the source gives them in different places. Where no end group is shown, it is not given here.
Biological target: T1, HLA-A*0201 (HLA-A2:Ig fusion protein) (Homo sapiens, UniProt P04439, D140Y/D185E/D98H/E176V/E277Q/G131W/G231S/I119V/I121R/I166T/I218V/L300P/L318F/N151K/N90K/P208A/P217A/Q86G/Q94H/R138H/R169H/T345S)
T1 construct: two extracellular portions of the major histocompatibility complex (MHC) class I HLA-A2 domains fused to the […] of a mouse IgG1 antibody; purchased BD Biosciences (HLA-A2:Ig); Fitzgerald Industries (β2-microglobulin)
Assay: Competitive binding assay using HLA-A2:Ig fusion protein (fluorescence polarization)
Experimental: The labeled peptide ([…]) was commercially synthesized by GenScript Corporation as a reference peptide for the binding assay. A fluorescein moiety was introduced into position P8 of the designed peptide ([…]). […] The lyophilized labeled peptide was diluted in 100% DMF (Dimethylformamide) to a final concentration of 10 mM. Subsequent dilutions were carried out using 0.5 mg/ml bovine-γ-globulin (BGG) in 1×PBS.
Soluble HLA-A2:Ig dimer complexes were obtained from BD Biosciences. This fusion protein consists of two extracellular portions of the major histocompatibility complex (MHC) class I HLA-A2 domains fused to the […] of a mouse IgG1 antibody. Additional β2-microglobulin (Fitzgerald Industries) was added to the binding assays to retain the fusion protein in a functional state. […] The competitive binding assays were carried out at room temperature for an incubation period of 3 days.
Both labeled and unlabeled peptides were added to the reaction mixture before the HLA-A2:Ig fusion protein, ensuring that both peptides were presented simultaneously to the HLA molecule. To avoid peptide photobleaching, the reaction mixture was incubated within aluminum foil covered microcentrifuge tubes. After the 3 days incubation period, 20 µl of the reaction mixture was loaded into individual wells of a black, non-binding surface (NBS) 384 well plate (Corning). Controls included only buffer (blank), protein and pFITC. Each experiment was performed in quadruplicate and reported as the mean with standard deviation.

[1] = predicted 9-mer tested, fluorescence polarization competition with fluorescein-labeled […], room temperature, 3 days, quadruplicate, read-out: Binding affinity

| Compound | IC50 [1] [µM] | further results |
| --- | --- | --- |
| GLFGKGSLV | 0.0029 | – |
| RTNDWDFVV [DENV2 (1)] | – | IC50 (read-out: IC50): 0.167 µM |
| KLTDWDFVV [DENV4] | – | IC50: 0.061 µM |
| CC(C)C[C@H](NC(=O)[C@@H](N)CCCCN)C(=O)N[C@@H](CC(N)=O)C(=O)N[C@@H](CC(=O)O)C(=O)N[C@@H](Cc1c[nH]c2ccccc12)C(=O)N[C@@H](CC(=O)O)C(=O)N[C@@H](Cc1ccccc1)C(=O)N[C@H](C(=O)N[C@H](C(=O)O)C(C)C)C(C)C [NS3_399–407] | 0.11 | – |
